In experiment [1] the target is T1, Recombinant GST-Bax protein (Homo sapiens, UniProt Q07812).
T1 construct: purchased Abnova
Put plainly: BAX liposome assay. The format is biochemical. The protocol: Inhibition of BAX oligomerization and pore formation was evaluated using a liposome assay preparation. To do so, 30% 1,2-dioleoyl-sn-glycero-3-phosphate and 70% 1,2-dioleoyl-sn-glycero-3-phosphocholine (Avanti Polar Lipids, Alabaster, Ala.) were mixed in chloroform followed by evaporation at 37° C. under nitrogen (Saito et al., 2000). Liposomes were then rehydrated with agitation in buffer containing 50 mM 10 kD-dextran carboxyfluorescein (dextran-CF, Invitrogen, Carlsbad, Calif.), 100 mM KCl, 1 mM EDTA and 20 mM HEPES at pH 7.4. Liposomes were then sized using 5 freeze-thaw cycles, 5 minutes in a sonication bath, followed by 3 passages through a 5 μm syringe filter and 5 passages through a 0.2 μm syringe filter. Free dextran-CF was removed by Sepharose S-300 size exclusion chromatography (GE Healthcare, Piscataway, N.J.). Recombinant GST-Bax protein (Abnova, Taipei, Taiwan) was activated by incubating for 30 minutes in 2% octyglucoside in the presence or absence of compound X in a 96-well plate. Liposomes were then added to the activated GST-Bax (final concentration 10 nM). Carboxyfluorescein release from liposomes was measured by excitation with 497 nm light and the […] monitored for 15 minutes.

Experiment [2] has as its system SH-SY5Y human neuroblastoma cells. In words: In vitro human SHSY5Y survival assay (neuronal survival assay). The format is cell-based. The note with it: n=2. The protocol:
In Vitro Human SHSY5Y Survival Assay
In order to determine if compounds effect cell survival, we tested them in an in vitro assay using the human neuroblastoma cell line SH-SY5Y. SH-SY5Y human neuroblastoma cells treated with retinoic acid for 5 days produce a homogeneous population of neuronal differentiated cells that are strictly dependant on BDNF for their survival. SH-SY5Y cells are plated on 96-well collagen coated plates and incubated for 24 hours. Retinoic acid is then added and incubated on the cells for 5 days. After 5 days, media with retinoic acid is removed and replaced with serum free media+/−compound. Each plate includes basal media (negative) and BDNF (positive) controls. The cells are then fixed with paraformaldehyde (3.7%) and stained with the nuclear marker Hoechst and the neuronal marker beta-Tubulin III. The plate is imaged using the In Cell Analyzer 2000™. Each well is imaged in 9 different spots throughout the well. The images are analyzed with a custom-designed algorithm using the In Cell Developer™ software. Data is averaged per compound concentration and calculated as a background subtracted percent of positive control.

For experiment [3], the system named is mitochondria isolated from HeLa cells. Put plainly: HeLa cytochrome C release assay. The format is biochemical. The note with it: at a concentration of 10 μM; release initiated with t-Bid 25 nM. The protocol:
HeLa Cytochrome C Release Assay
Inhibition of the pro-apoptotic protein cytochorome C by a compound of Formula I (and/or a compound of any of the other formulae described herein), was evaluated in mitochondria isolated from HeLa cells. In the assay, 10-20 million HeLa cells were resuspended in assay buffer (70 mM sucrose; 230 mM mannitol; 1 mM EDTA; 5 mM HEPES, pH 7 with KOH) containing protease inhibitor cocktail (Sigma P-8340) and treated with 1.5 μg/million cells digitonin for 5 minutes at 4° C. Cells were pelleted by centrifugation and washed twice with assay buffer containing 0.5% BSA. Cells were resuspended in assay buffer and homogenized with a Dounce homogenizer (60 strokes) on ice. Intact cells were removed by centrifugation (1000×g, 10 min) and the supernatant centrifuged (8,500×g, 10 min) The mitochondrial pellet was resuspended in assay buffer to achieve a protein concentration of 0.333 μg/ml. 15 μl of Test compound (at 5× dilution) was combined with 45 μl mitochondria and incubated for 15 min at RT. Cytochrome C release was initiated with 15 μl t-Bid (final conc=25 nM) and the reaction continued for 30 min at RT. Samples were then centrifuged (12,000×g, 10 min) and 50 μl of the supernatant analyzed for cytochrome C content by ELISA (R & D Systems, #DCTCO).

3 molecules from patent US9187439B2, “Tricyclic compounds useful as neurogenic and neuroprotective agents” (INCEPTION 1, INC., priority 2011, dated 2015) can be followed below.

In general, IC50 refers to the midpoint of a concentration-inhibition curve. The term EC50 denotes the concentration at which the effect is half-maximal. Low values mean a more potent agent, high ones a less potent agent.

T1 sequence (Q07812 whole entry): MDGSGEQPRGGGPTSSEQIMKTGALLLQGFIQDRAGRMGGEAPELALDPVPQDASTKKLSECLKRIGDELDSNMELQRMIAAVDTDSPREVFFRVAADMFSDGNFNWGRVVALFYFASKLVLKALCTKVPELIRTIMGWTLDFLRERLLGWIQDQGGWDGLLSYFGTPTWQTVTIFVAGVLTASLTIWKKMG

With `OC(CN1CC2(COC2)C1)CN1c2ccccc2Sc2ccc(C(F)(F)F)cc21` (racemic) [Example 1, (±)-1-(2-oxa-6-azaspiro[3.3]heptan-6-yl)-3-(2-(trifluoromethyl)-10H-phenothiazin-10-yl)propan-2-ol], the IC50 in experiment [1] was 24.6 µM. The same molecule had a 50% effective concentration (EC50) in experiment [2] of 0.509 µM.
For the molecule `OC(CN1CC2(CNC2)C1)CN1c2ccccc2Sc2ccc(C(F)(F)F)cc21` (racemic) [Example 3, (±)-1-(2,6-diazaspiro[3.3]heptan-2-yl)-3-(2-(trifluoromethyl)-10H-phenothiazin-10-yl)propan-2-ol], the “inhibition of cytochrome C release” value in experiment [3] was 93%.
The same measure, in the same setting: as for `FC(F)(F)c1ccc2c(c1)N(CCCN1CC3(CNC3)C1)c1ccccc1S2` [Example 4, 10-(3-(2,6-diazaspiro[3.3]heptan-2-yl)propyl)-2-(trifluoromethyl)-10H-phenothiazine], the figure is 27%.
